“And” between values parts separate entries of the source, which are not always exact repeats. Equal entries are not always repeated. Toxic doses and inconclusive results are not listed. Cut-off read from the data, not from the text of the source: active = T/C of 150% or more; inactive = T/C below 125%.
System: L1210 leukemia ip in BDF1 mice, survival T/C
Test: NCI In Vivo Anticancer Drug Screen. Data for tumor model L1210 Leukemia (intraperitoneal) in B6D2F1 (BDF1) mice
Settings: endpoint: mean survival time, higher = longer survival
In short: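 Tumor cells were implanted, animals were treated, and survival was followed. The result divides the treated measurement by the vehicle-control measurement.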

[1] = dose: 100.0 mg/kg/injection, schedule: Q01DX009 (ip), vehicle: Klucel (hydroxypropylcellulose) (HPC)
[2] = dose: 200.0 mg/kg/injection, schedule: Q01DX009 (ip), vehicle: Klucel (hydroxypropylcellulose) (HPC)
[3] = dose: 400.0 mg/kg/injection, schedule: Q01DX009 (ip), vehicle: Klucel (hydroxypropylcellulose) (HPC)
[4] = dose: 100.0 mg/kg/injection, schedule: Q04DX003 (ip), vehicle: Klucel (hydroxypropylcellulose) (HPC)
[5] = dose: 200.0 mg/kg/injection, schedule: Q04DX003 (ip), vehicle: Klucel (hydroxypropylcellulose) (HPC)
[6] = dose: 75.0 mg/kg/injection, schedule: Q01DX001 (ip), vehicle: other
[7] = dose: 150.0 mg/kg/injection, schedule: Q01DX001 (ip), vehicle: other
[8] = dose: 100.0 mg/kg/injection, schedule: Q01DX001 (ip), vehicle: saline
[9] = dose: 200.0 mg/kg/injection, schedule: Q01DX001 (ip), vehicle: saline
[10] = dose: 50.0 mg/kg/injection, schedule: Q01DX001 (ip), vehicle: carboxymethylcellulose (CMC)
[11] = dose: 100.0 mg/kg/injection, schedule: Q01DX001 (ip), vehicle: carboxymethylcellulose (CMC)
[12] = dose: 200.0 mg/kg/injection, schedule: Q01DX001 (ip), vehicle: carboxymethylcellulose (CMC)
[13] = dose: 400.0 mg/kg/injection, schedule: Q01DX001 (ip), vehicle: carboxymethylcellulose (CMC)

Measured: T/C

CCNc1ncnc2c1c(C(N)=S)cn2C1OC(CO)C(O)C1O (stereo not given)
inactive: dose: 12.5 mg/kg/injection, schedule: Q01DX005 (ip), vehicle: saline 111 % of control and 113 % of control | dose: 12.5 mg/kg/injection, schedule: Q01DX009 (ip), vehicle: Klucel (hydroxypropylcellulose) (HPC) 109 % of control | dose: 12.5 mg/kg/injection, schedule: Q01DX009 (ip), vehicle: saline 111 % of control | dose: 25.0 mg/kg/injection, schedule: Q01DX005 (ip), vehicle: saline 105 % of control and 124 % of control | dose: 25.0 mg/kg/injection, schedule: Q01DX009 (ip), vehicle: Klucel (hydroxypropylcellulose) (HPC) 91 % of control | dose: 25.0 mg/kg/injection, schedule: Q01DX009 (ip), vehicle: saline 112 % of control

CCCCNC(=O)Nc1c(C)cccc1C
inactive: dose: 100.0 mg/kg/injection, schedule: Q01DX009 (ip), vehicle: gum acacia 99 % of control | dose: 100.0 mg/kg/injection, schedule: Q04DX003 (ip), vehicle: gum acacia 92 % of control | dose: 200.0 mg/kg/injection, schedule: Q01DX009 (ip), vehicle: gum acacia 87 % of control | dose: 200.0 mg/kg/injection, schedule: Q04DX003 (ip), vehicle: gum acacia 91 % of control | dose: 400.0 mg/kg/injection, schedule: Q01DX009 (ip), vehicle: gum acacia 87 % of control | dose: 400.0 mg/kg/injection, schedule: Q04DX003 (ip), vehicle: gum acacia 92 % of control

CSc1ccc(NC(=O)Nc2cc(C(C)C)ccc2C)cc1
inactive: [1] 103 % of control | [2] 104 % of control | [3] 98 % of control

c1cc[n+](CCSCCSCC[n+]2ccccc2)cc1
inactive: dose: 3.12 mg/kg/injection, schedule: Q01DX009 (ip), vehicle: acetone 97 % of control | dose: 3.12 mg/kg/injection, schedule: Q04DX003 (ip), vehicle: saline 106 % of control | dose: 6.25 mg/kg/injection, schedule: Q01DX009 (ip), vehicle: acetone 95 % of control | dose: 6.25 mg/kg/injection, schedule: Q04DX003 (ip), vehicle: saline 101 % of control | dose: 12.5 mg/kg/injection, schedule: Q01DX001 (ip), vehicle: saline 105 % of control | dose: 12.5 mg/kg/injection, schedule: Q04DX003 (ip), vehicle: saline 97 % of control

Cc1ccc(S(=O)(=O)NCCCCCC(=O)O)cc1
inactive: [1] 101 % of control | [4] 98 % of control | [2] 101 % of control | [5] 94 % of control | [3] 100 % of control | dose: 400.0 mg/kg/injection, schedule: Q04DX003 (ip), vehicle: Klucel (hydroxypropylcellulose) (HPC) 96 % of control

COC(=O)C(CSCSC)NC(=O)/C=C/c1ccco1 (stereo not given)
inactive: dose: 25.0 mg/kg/injection, schedule: Q01DX009 (ip), vehicle: saline with Tween-80 107 % of control | dose: 50.0 mg/kg/injection, schedule: Q01DX009 (ip), vehicle: saline with Tween-80 107 % of control | dose: 100.0 mg/kg/injection, schedule: Q01DX009 (ip), vehicle: saline with Tween-80 102 % of control and 91 % of control | dose: 100.0 mg/kg/injection, schedule: Q04DX003 (ip), vehicle: saline with Tween-80 93 % of control | dose: 200.0 mg/kg/injection, schedule: Q04DX003 (ip), vehicle: saline with Tween-80 101 % of control | dose: 400.0 mg/kg/injection, schedule: Q04DX003 (ip), vehicle: saline with Tween-80 95 % of control

CC(=O)OC1CCC2(C)C(CCC3C2CC(=O)C2(C)C3CC(Sc3ccc(N(CCCl)CCCl)cc3)C2C(C)=O)C1 (stereo not given)
inactive: dose: 100.0 mg/kg/injection, schedule: Q01DX001 (sc), vehicle: steriod suspending solution 108 % of control | dose: 200.0 mg/kg/injection, schedule: Q01DX001 (sc), vehicle: steriod suspending solution 103 % of control | dose: 400.0 mg/kg/injection, schedule: Q01DX001 (sc), vehicle: steriod suspending solution 105 % of control

Cc1ccnc2c([N+](=O)[O-])cccc12
inactive: [6] 102 % of control | dose: 100.0 mg/kg/injection, schedule: Q04DX002 (ip), vehicle: saline with Tween-80 103 % of control | [7] 102 % of control | dose: 200.0 mg/kg/injection, schedule: Q04DX002 (ip), vehicle: saline with Tween-80 109 % of control | dose: 300.0 mg/kg/injection, schedule: Q01DX001 (ip), vehicle: other 103 % of control

O=C(c1ccc(Cl)cc1Cl)C(Cl)Cl
inactive: dose: 30.0 mg/kg/injection, schedule: Q01DX015 (ip), vehicle: saline 98 % of control | dose: 60.0 mg/kg/injection, schedule: Q01DX015 (ip), vehicle: saline 91 % of control | dose: 120.0 mg/kg/injection, schedule: Q01DX015 (ip), vehicle: saline 98 % of control

O=P(N=C=S)(N=C=S)N=C=S
inactive: [6] 114 % of control

COC(=O)CNC(=O)C(Cc1ccc(O)cc1)NC(=O)OC(C)(C)C (stereo not given)
inactive: dose: 50.0 mg/kg/injection, schedule: Q01DX005 (ip), vehicle: saline 95 % of control | dose: 100.0 mg/kg/injection, schedule: Q01DX005 (ip), vehicle: saline 105 % of control | dose: 200.0 mg/kg/injection, schedule: Q01DX005 (ip), vehicle: saline 96 % of control | dose: 400.0 mg/kg/injection, schedule: Q01DX005 (ip), vehicle: saline 98 % of control

CNC(=O)Oc1c([N+](=O)[O-])cc([N+](=O)[O-])c2ccccc12
inactive: [6] 111 % of control | [7] 102 % of control

CC(=O)NC1CCC(Br)CC1 (stereo not given)
inactive: dose: 50.0 mg/kg/injection, schedule: Q01DX009 (ip), vehicle: Klucel (hydroxypropylcellulose) (HPC) 94 % of control | [1] 105 % of control | [2] 102 % of control

O=c1c2cn[nH]c2nc2ccccn12
inactive: [8] 96 % of control | [9] 94 % of control | dose: 400.0 mg/kg/injection, schedule: Q01DX001 (ip), vehicle: saline 94 % of control

CCOC(=O)Nc1ccc2c(c1)/C(=N\NC(N)=S)c1ccccc1-2
inactive: [10] 94 % of control | dose: 50.0 mg/kg/injection, schedule: Q04DX003 (ip), vehicle: saline 86 % of control | dose: 75.0 mg/kg/injection, schedule: Q01DX009 (ip), vehicle: saline with Tween-80 101 % of control | [11] 102 % of control | [8] 93 % of control | dose: 100.0 mg/kg/injection, schedule: Q04DX003 (ip), vehicle: saline 92 % of control | dose: 150.0 mg/kg/injection, schedule: Q01DX009 (ip), vehicle: saline with Tween-80 113 % of control | [12] 105 % of control | [9] 96 % of control | dose: 200.0 mg/kg/injection, schedule: Q04DX003 (ip), vehicle: saline 100 % of control | [13] 100 % of control

O=C(Nc1ccc(C(=O)Nc2cccc(C3=NCCN3)c2)cc1)Nc1ccc(C(=O)Nc2cccc(C3=NCCN3)c2)cc1
inactive: dose: 3.75 mg/kg/injection, schedule: Q01DX Z (ip), vehicle: methylcellulose (MC) 101 % of control | dose: 3.8 mg/kg/injection, schedule: Q01DX Z (ip), vehicle: methylcellulose (MC) 100 % of control | dose: 7.5 mg/kg/injection, schedule: Q01DX Z (ip), vehicle: methylcellulose (MC) 97 % of control | dose: 15.0 mg/kg/injection, schedule: Q01DX Z (ip), vehicle: methylcellulose (MC) 106 % of control | dose: 30.0 mg/kg/injection, schedule: Q01DX Z (ip), vehicle: methylcellulose (MC) 118 % of control and 86 % of control | [10] 103 % of control | [11] 120 % of control | dose: 120.0 mg/kg/injection, schedule: Q01DX Z (ip), vehicle: methylcellulose (MC) 124 % of control | [12] 120 % of control | dose: 225.0 mg/kg/injection, schedule: Q01DX009 (ip), vehicle: saline with Tween-80 117 % of control | dose: 340.0 mg/kg/injection, schedule: Q01DX009 (ip), vehicle: saline with Tween-80 88 % of control | [13] 108 % of control

CC(C)Oc1ccc2ccccc2c1
inactive: dose: 12.5 mg/kg/injection, schedule: Q04DX003 (ip), vehicle: acetone 94 % of control | dose: 25.0 mg/kg/injection, schedule: Q04DX003 (ip), vehicle: acetone 93 % of control | dose: 50.0 mg/kg/injection, schedule: Q04DX003 (ip), vehicle: acetone 93 % of control

CCOC(=O)NC1=C(Cl)C(=O)C(NC(=O)OCC)=C(Cl)C1=O
inactive: [4] 102 % of control | [5] 92 % of control
